# Test results taken from US20120107417A1, “Effective Antitumor Treatments” (PHARMA MAR, S.A., priority 2000, published 2012).
# Columns and labels:
# xenograft = experiment: Xenograft, Et743 pre-DDP (tumor not named); format: in vivo; conditions: xenograft data; Et743 pre-DDP vs Et743 alone
# Text: (§1) Osteosarcoma xenografts produced similar results of 17% vs. 43%. […] The one exception was in NSCL were Et743 alone was not active (62% T/C) but DPP followed by Et743 produced CR (<1% T/C). In renal xenografts Et743 alone was very active (22% T/C) but Et743 followed by VINB also produced CR (<1% T/C). Separate studies are underway with other standard agents in breast, renal, melanoma and gastric tumor xenografts.
# liver = conditions: rat
# Description: In the light of the antiinflammatory activity of dex, we investigated its effect on liver damage induced by ET-743 in the rat. Female Wistar rats received a single iv dose of ET-743 (40 μg/kg). Some rats were pretreated with a single oral dose of dex either at 1, 5, 10 or 20 mg/kg 24 h prior to ET-743 treatment. Liver pathology and plasma concentrations of alkaline phophatase (ALP), aspartate aminotransferase (GOT) and total bilirubin (TB) were assessed up to 3 days post ET-743 administration. Conventional histological sections of the livers were examined by light microscopy.
# melanoma (MEXF 989) = conditions: Hendriks et al. 1999; cited from earlier work
# HS-18 cells = experiment: Cell cycle analysis (propidium iodide, FACS), HS-18; format: cell-based, human
# Description: (§2) Exponentially growth cells were treated with or without drugs for several hours. Cells were then collected and fixed with ice-cold 70% methanol. DNA was stained with propidium iodide as described previously. Ten thousand stained cells were analyzed on a Becton Dickinson fluorescence-activated cell sorter (FACS).
# [1] = test system: human rabdomyosarcoma zenograft TE671; experiment: ET-743/doxorubicin against TE671 xenograft in athymic (nude) mice; format: in vivo
# Description: In vivo: Single iv treatments (ET-743, 0.1 mg/Kg; DOX, 10 mg/Kg) were administered in nude mice when xenograft tumors weighed approximately 100 mg.
# ovary (MRI-H-1834) = experiment: Hollow fiber (HF) model, ovary; format: in vivo; conditions: Et743 0.2 mg/Kg pre-DDP 12 mg/Kg vs Et743 alone
# Text: as §1
# NSCL (LX-1) = experiment: NSCL tumor, Et743 and DDP; format: in vivo; conditions: Et743 alone vs DDP followed by Et743
# Text: as §1
# ovary (HOC 22) = conditions: Hendriks et al. 1999; cited from earlier work
# [2] = Plasma levels of ET-743 in rats pretreated with dex; format: in vivo; conditions: rats given dex 50 mg/kg daily for 3 days prior to ET-743, compared to ET-743 alone
# Description: (§3) Plasma levels of ET-743 in rats which received dex (50 mg/kg) daily for 3 days prior to ET-743 were not decreased compared to those in rats on ET-743 alone. Furthermore, the activity of ET-743 against B16 melanoma implanted into mice was not impeded by dexamethasone.
# chondrosarcoma (CSHA) = experiment: Hollow fiber (HF) model, chondrosarcoma; format: in vivo
# Text: as §1
# renal (MRI-H-121) = experiment: Renal xenografts, Et743 and VINB; format: in vivo; conditions: Et743 alone vs Et743 followed by VINB 6 mg/Kg
# Text: as §1
# fibrosarcoma (SW684) = experiment: Hollow fiber (HF) model, fibrosarcoma; format: in vivo; conditions: DOX 8 mg/Kg 1 hr pre-Et743 0.2 mg/Kg vs Et743 alone, qdx5
# Text: as §1
# HT-1080 = experiment: SRB cytotoxicity assay and Chou-Talalay combination index, HT-1080; format: cell-based, human; conditions: HT 1080 fibrosarcoma cell line; read-out: IC50
# Description: (§4) Soft tissue sarcoma cell lines, HT-1080 and HS-18 were maintained as monolayer cultures in RP<I-1640 containing 10% fetal bovine serum.
# (§5) Cytotoxicity to drugs was determined by SRB cytotoxicity assay carried out in 96-well microtiter plates as described. Cells were plated in duplicate wells (5000 cells/well) and exposed to drugs at different concentrations. Cells were fixed with 50% TCA solution for 1 h and 0.4% SRB (Sigma) was added to each well. After a 30 min incubation, the plate were washed with 1% acetic acid and read at 570 nm on a Biowhitaker microplate reader 2001. The wells with cells containing no drugs and with medium plus drugs but no cells were used as positive and negative controls, respectively.
# (§6) Cells were seeded into 96-well plates, as described previously. Cells were treated with seven different concentrations of the single drugs or combinations mixture at 1:100 (ET-743: the other drugs) molar ratio. After 72 h exposure, growth inhibition was measured using the SRB assay.
# (§7) Using the same experimental setup described above, we exposed cells to three different concentrations of drugs which represents the IC25, IC50, IC75 of ET-743, DXR, TMTX and paclitaxel, respectively. After 24 hours pre-treatment with ET743 or the combination drug, the second drugs were added to the respective wells for 48 h. Growth inhibition was determined using the SRB assay.)
# (§8) The CI was calculated by the Chou-Talalay equation, which takes into account both potency (Dm or IC50) and the shape of the dose effect curve (the m value). The general equation for the classic isobologram (CI=1) is given by:
# (§9) CI=(D)1/(Dx)1+(D)2/(Dx)2 (A)
# HS-18 = experiment: SRB cytotoxicity assay and Chou-Talalay combination index, HS-18; format: cell-based, human; conditions: HS-18 liposarcoma cell line; read-out: IC50
# Description: as §4, §5, §6, §7, §8, §9
# NSCL (LXFL 529) = conditions: Hendriks et al. 1999; cited from earlier work
# sc transplanted TE671 = experiment: ET-743/DDP against sc transplanted TE671; format: in vivo, human; conditions: single drugs at MTD or combination
# UV2237/ADR = experiment: ET-743/doxorubicin against mdr-resistant subline UV2237/ADR in mice; format: in vivo, murine; conditions: alone or combination
# breast carcinoma (MX-1) = conditions: Hendriks et al. 1999; cited from earlier work
# B16 melanoma = experiment: Activity of ET-743 against B16 melanoma with dexamethasone; format: in vivo; conditions: mice
# Description: as §3
# ovarian 1 A 9 tumor = experiment: ET-743/DDP against ovarian 1A9 tumor in vivo; set-up: species or system human; conditions: single agents
# Text: The ovarian 1 A 9 tumor that is normally resistant to both ET-743 and DDP as single agents, in combination produced a tumor growth inhibition greater than 50%.
# NER deficient cells = NER deficient cells very sensitive to cisplatin; previous studies; cited from earlier work
# osteosarcoma (OSA-FH) [3] = experiment: Osteosarcoma xenografts; format: in vivo; conditions: DOX 1 hr pre-Et743 vs Et743 alone
# Text: as §1
# [4] = test system: mismatch repair (MMR) deficient cells; conditions: MMR deficient vs proficient cells; previous studies; cited from earlier work
# TE 671 cells = experiment: Clonogenic assay ET-743/DOX, TE 671; format: cell-based, human; conditions: 1 hr exposures, isobologram analysis and Combination Index
# Description: In vitro: The effect of each drug or combination after 1 hr exposures was evaluated by clonogenic assay.
# [5] = test system: murine fibrosarcoma UV2237; experiment: ET-743/doxorubicin against murine fibrosarcoma UV2237 in mice; format: in vivo; conditions: alone or combination
# [6] = test system: human ovarian carcinoma HOC8; experiment: ET-743/DDP against orthotopically transplanted HOC8; format: in vivo; conditions: HOC8 orthotopic, peritoneal nodules with ascites; single agents
# osteosarcoma (OSA-FH) [7] = experiment: Hollow fiber (HF) model, osteosarcoma; format: in vivo
# Text: as §1
# HT-1080 cells = experiment: Cell cycle analysis (propidium iodide, FACS), HT-1080; format: cell-based, human
# Description: as §2
# [8] = ET-743 40 μg/kg iv alone, after 2 days
# [9] = 24 h after treatment with approximate IC50 dose
# [10] = 72 h after treatment with approximate IC50 dose
# [11] = single i.v. treatment at tumor approx. 100 mg, drug alone (ET-743 0.1 mg/kg; Dx 10 mg/kg)
# [12] = DOX 8 mg/Kg 1 hr pre-Et743 0.2 mg/Kg vs Et743 alone, qdx5
substance,measurement,setting,value
Ecteinascidin 743 [ET-743],T/C,xenograft,66%
same,Plasma levels of ALP,liver; [8],significantly elevated
same,Plasma levels of GOT,liver; [8],significantly elevated
same,plasma TB concentrations,"liver; ET-743 40 μg/kg iv alone, commenced on day 2",dramatic increase
same,liver pathology,"liver; ET-743 40 μg/kg single iv alone, 2 days post treatment","bile duct inflammation, striking degenerative changes in biliary epithelial cells and zones of hepatic necrosis"
same,"in vivo tumor growth inhibition, single agent",melanoma (MEXF 989),complete remissions
same,% G1,HS-18 cells; [9],32.4%
same,% G2-M,HS-18 cells; [9],20.0%
same,% S phase,HS-18 cells; [9],47.6%
same,% G1,HS-18 cells; [10],86.7%
same,% G2-M,HS-18 cells; [10],4.9%
same,% S phase,HS-18 cells; [10],8.4%
same,antitumor effect in words,"[1]; TE671 in mice, alone or combination",inactive or marginally active
same,Log 10 Cell Kill (LCK),[1]; [11],0.132
same,tumor weight inhibition (TWI),[1]; [11],46%
same,T/C,ovary (MRI-H-1834),100%
same,T/C,NSCL (LX-1),62%
same,"in vivo tumor growth inhibition, single agent",ovary (HOC 22),complete remissions
same,Plasma levels of ET-743,[2],not decreased
same,T/C,chondrosarcoma (CSHA); [12],10%
same,T/C,chondrosarcoma (CSHA); Et743 0.2 mg/Kg pre-DDP 12 mg/Kg vs Et743 alone,19%
same,T/C,renal (MRI-H-121),22%
same,T/C,fibrosarcoma (SW684),48%
same,IC50,HT-1080,0.01 nM
same,IC50,HS-18,0.27 nM
same,"in vivo tumor growth inhibition, single agent",NSCL (LXFL 529),complete remissions
same,antitumor effect in words,sc transplanted TE671,partially sensitive
same,antitumor effect in words,UV2237/ADR,inactive or marginally active
same,"in vivo tumor growth inhibition, single agent",breast carcinoma (MX-1),complete remissions
same,activity of ET-743 against B16 melanoma,B16 melanoma,not impeded
same,sensitivity of tumor to single agent,ovarian 1 A 9 tumor,resistant
same,times less sensitive to ET-743,NER deficient cells,6-8 times
same,T/C,osteosarcoma (OSA-FH) [3],43%
same,sensitivity to ET-743 compared with proficient cells,[4],equally sensitive
same,anti-tumor activity / interaction in clonogenic assay,TE 671 cells,showed anti-tumor activity
same,antitumor effect in words,[5],effective
same,sensitivity of tumor to single agent,[6],resistant
same,T/C,osteosarcoma (OSA-FH) [7]; [12],34%
same,T/C,"osteosarcoma (OSA-FH) [7]; Et743 pre-DDP and Et743 alone, equivalent activities",36%
same,% G1,HT-1080 cells; [9],42.6%
same,% G2-M,HT-1080 cells; [9],21.3%
same,% S phase,HT-1080 cells; [9],36.1%
same,% G1,HT-1080 cells; [10],83.1%
same,% G2-M,HT-1080 cells; [10],6.7%
same,% S phase,HT-1080 cells; [10],10.2%
